# In PMC5218480 (PLoS ONE, 2017):
# Test system: MV-4-11 cells
# Test: Gene expression microarray analysis (Affymetrix PrimeView) and GSEA
# Type: cell-based, human
# Set-up: RFU PODN (11730768_x_at) / Fold change /veh PODN (11730768_x_at) / RFU LINC00158 (11744669_a_at) / Fold change /veh LINC00158 (11744669_a_at) / RFU DUSP10 (11751237_a_at) / Fold change /veh DUSP10 (11751237_a_at) / RFU ID3 (11757404_x_at) / Fold change /veh ID3 (11757404_x_at) / RFU PLEKHG5 (11737974_s_at) / Fold change /veh PLEKHG5 (11737974_s_at) / RFU LRRC4B (11730491_at) / Fold change /veh LRRC4B (11730491_at) / RFU GIMAP4 (11747438_a_at) / Fold change /veh GIMAP4 (11747438_a_at) / RFU KRT8 (11758183_x_at) / Fold change /veh KRT8 (11758183_x_at) / RFU CNN1 (11734310_a_at) / Fold change /veh CNN1 (11734310_a_at) / RFU VPS37D (11726825_at) / Fold change /veh VPS37D (11726825_at) / RFU C10orf10 (11716522_x_at) / Fold change /veh C10orf10 (11716522_x_at) / RFU KIR2DL2 /// KIR2DL4 /// KIR2DL5A /// KIR2DL5B /// KIR2DS1 /// KIR2DS2 /// KIR2DS3 /// KIR2DS4 /// KIR3DL3 /// KIR3DL3 /// KIR3DS1 (11738374_at) / Fold change /veh KIR2DL2 /// KIR2DL4 /// KIR2DL5A /// KIR2DL5B /// KIR2DS1 /// KIR2DS2 /// KIR2DS3 /// KIR2DS4 /// KIR3DL3 /// KIR3DL3 /// KIR3DS1 (11738374_at) / RFU C1QL1 (11718748_at) / Fold change /veh C1QL1 (11718748_at) / RFU TMPRSS4 (11747572_a_at) / Fold change /veh TMPRSS4 (11747572_a_at) / RFU HAMP (11756126_x_at) / Fold change /veh HAMP (11756126_x_at) / RFU RNFT2 (11725882_a_at) / Fold change /veh RNFT2 (11725882_a_at) / RFU NR4A2 (11747474_a_at) / Fold change /veh NR4A2 (11747474_a_at) / RFU ABCC12 (11746883_a_at) / Fold change /veh ABCC12 (11746883_a_at) / RFU TMEM136 (11760407_x_at) / Fold change /veh TMEM136 (11760407_x_at) / RFU CLDN22 /// WWC2 (11732394_at) / Fold change /veh CLDN22 /// WWC2 (11732394_at) / RFU HLA-DPB1 (11760878_x_at) / Fold change /veh HLA-DPB1 (11760878_x_at) / RFU SPINT1 (11716480_a_at) / Fold change /veh SPINT1 (11716480_a_at) / RFU GAP43 (11754022_s_at) / Fold change /veh GAP43 (11754022_s_at) / RFU A4GNT (11735810_at) / Fold change /veh A4GNT (11735810_at) / RFU PRB3 (11715151_x_at) / Fold change /veh PRB3 (11715151_x_at) / RFU TUBB4B (11761932_at) / Fold change /veh TUBB4B (11761932_at) / RFU CAPN14 (11732068_a_at) / Fold change /veh CAPN14 (11732068_a_at) / RFU TMCC2 (11721928_a_at) / Fold change /veh TMCC2 (11721928_a_at) / RFU IRGQ (11745062_a_at) / Fold change /veh IRGQ (11745062_a_at) / RFU FAM174B (11720279_a_at) / Fold change /veh FAM174B (11720279_a_at) / RFU TMPRSS4 (11748680_a_at) / Fold change /veh TMPRSS4 (11748680_a_at) / RFU FAM212B (11763350_a_at) / Fold change /veh FAM212B (11763350_a_at) / RFU PLEKHG5 (11743358_a_at) / Fold change /veh PLEKHG5 (11743358_a_at) / RFU ZSCAN30 (11745921_a_at) / Fold change /veh ZSCAN30 (11745921_a_at) / RFU CMKLR1 (11741424_a_at) / Fold change /veh CMKLR1 (11741424_a_at) / RFU LOC101060620 /// MAPK8IP1 (11723275_at) / Fold change /veh LOC101060620 /// MAPK8IP1 (11723275_at) / RFU SPTSSB (11747773_x_at) / Fold change /veh SPTSSB (11747773_x_at) / RFU PRSS12 (11739890_at) / Fold change /veh PRSS12 (11739890_at) / RFU BIN1 (11741810_x_at) / Fold change /veh BIN1 (11741810_x_at) / RFU WNT11 (11732464_a_at) / Fold change /veh WNT11 (11732464_a_at) / RFU C10orf10 (11716521_a_at) / Fold change /veh C10orf10 (11716521_a_at) / RFU C5orf56 (11738089_at) / Fold change /veh C5orf56 (11738089_at) / RFU CYB561 (11721691_x_at) / Fold change /veh CYB561 (11721691_x_at) / RFU ANKRD19P (11752326_a_at) / Fold change /veh ANKRD19P (11752326_a_at) / RFU OR2T12 /// OR2T33 /// OR2T8 (11738714_s_at) / Fold change /veh OR2T12 /// OR2T33 /// OR2T8 (11738714_s_at) / RFU VCAN (11748164_a_at) / Fold change /veh VCAN (11748164_a_at) / RFU JSRP1 (11732532_at) / Fold change /veh JSRP1 (11732532_at) / RFU KRTAP10-11 (11738290_x_at) / Fold change /veh KRTAP10-11 (11738290_x_at) / RFU MYO3A (11730013_a_at) / Fold change /veh MYO3A (11730013_a_at) / RFU EBF3 (11725865_a_at) / Fold change /veh EBF3 (11725865_a_at) / RFU CAMK2N1 (11719241_x_at) / Fold change /veh CAMK2N1 (11719241_x_at) / RFU C5orf56 (11738088_a_at) / Fold change /veh C5orf56 (11738088_a_at) / RFU OLFML3 (11715873_a_at) / Fold change /veh OLFML3 (11715873_a_at) / RFU LOC100653217 /// NTM (11731650_a_at) / Fold change /veh LOC100653217 /// NTM (11731650_a_at) / RFU MAPK11 (11762145_a_at) / Fold change /veh MAPK11 (11762145_a_at) / RFU FIZ1 (11724087_x_at) / Fold change /veh FIZ1 (11724087_x_at) / RFU OASL (11726364_x_at) / Fold change /veh OASL (11726364_x_at) / RFU SOX15 (11748057_x_at) / Fold change /veh SOX15 (11748057_x_at) / RFU CD79A (11719716_a_at) / Fold change /veh CD79A (11719716_a_at) / RFU HIST1H1D (11736915_at) / Fold change /veh HIST1H1D (11736915_at) / RFU CASKIN2 (11723855_a_at) / Fold change /veh CASKIN2 (11723855_a_at) / RFU LOC730098 (11760151_x_at) / Fold change /veh LOC730098 (11760151_x_at) / RFU OR4N2 (11742367_at) / Fold change /veh OR4N2 (11742367_at) / RFU PRRT2 (11749266_a_at) / Fold change /veh PRRT2 (11749266_a_at) / RFU SNX32 (11753110_a_at) / Fold change /veh SNX32 (11753110_a_at) / RFU CDHR5 (11726645_a_at) / Fold change /veh CDHR5 (11726645_a_at) / RFU RCAN1 (11760418_a_at) / Fold change /veh RCAN1 (11760418_a_at) / RFU FAM167A (11723789_a_at) / Fold change /veh FAM167A (11723789_a_at) / RFU FAM26E (11764081_at) / Fold change /veh FAM26E (11764081_at) / RFU ISYNA1 (11749810_s_at) / Fold change /veh ISYNA1 (11749810_s_at) / RFU ACY1 (11761880_at) / Fold change /veh ACY1 (11761880_at) / RFU 11764098_at / Fold change /veh 11764098_at / RFU SAMD14 (11745864_x_at) / Fold change /veh SAMD14 (11745864_x_at) / RFU NPB (11741838_a_at) / Fold change /veh NPB (11741838_a_at) / RFU TMPRSS6 (11731388_a_at) / Fold change /veh TMPRSS6 (11731388_a_at) / RFU KRTAP10-2 (11738614_at) / Fold change /veh KRTAP10-2 (11738614_at) / RFU ARHGAP8 /// PRR5-ARHGAP8 (11727945_x_at) / Fold change /veh ARHGAP8 /// PRR5-ARHGAP8 (11727945_x_at) / RFU KRTAP5-7 /// NADSYN1 (11734609_at) / Fold change /veh KRTAP5-7 /// NADSYN1 (11734609_at) / RFU RASL12 (11751679_a_at) / Fold change /veh RASL12 (11751679_a_at) / RFU CDKN2B (11736163_a_at) / Fold change /veh CDKN2B (11736163_a_at) / RFU PRF1 (11729649_at) / Fold change /veh PRF1 (11729649_at) / RFU, ZNF638 /// ZNF638-IT1 / Fold change vs veh, ZNF638 /// ZNF638-IT1 / RFU, PANK3 / Fold change vs veh, PANK3 / RFU, SH3YL1 / Fold change vs veh, SH3YL1 / RFU, ZEB2 / Fold change vs veh, ZEB2 / RFU, NRIP1 / Fold change vs veh, NRIP1 / RFU, PTTG1IP / Fold change vs veh, PTTG1IP / RFU, CAPN2 / Fold change vs veh, CAPN2 / RFU, MED14 / Fold change vs veh, MED14 / RFU, SNORA58 / Fold change vs veh, SNORA58 / RFU, C1orf63 / Fold change vs veh, C1orf63 / RFU, LRRFIP1 / Fold change vs veh, LRRFIP1 / RFU, NDUFAF7 / Fold change vs veh, NDUFAF7 / RFU, SLC12A2 / Fold change vs veh, SLC12A2 / RFU, IBTK / Fold change vs veh, IBTK / RFU, ESF1 / Fold change vs veh, ESF1 / Fold change vs veh, TMEM50B / RFU, TAOK1 / Fold change vs veh, TAOK1 / RFU, ACBD3 / Fold change vs veh, ACBD3 / RFU, TMA16 / Fold change vs veh, TMA16 / RFU, RWDD3 / Fold change vs veh, RWDD3 / RFU, BCAT1 / Fold change vs veh, BCAT1 / RFU, EDEM3 / Fold change vs veh, EDEM3 / RFU, TMEM33 / Fold change vs veh, TMEM33 / RFU, WDR75 / Fold change vs veh, WDR75 / RFU, AHCTF1 / Fold change vs veh, AHCTF1 / RFU, TFRC / Fold change vs veh, TFRC / RFU, ZDHHC17 / Fold change vs veh, ZDHHC17 / RFU, NOM1 / Fold change vs veh, NOM1 / RFU, ARL8B / Fold change vs veh, ARL8B / RFU, ZBTB11 / Fold change vs veh, ZBTB11 / RFU, TAMM41 / Fold change vs veh, TAMM41 / RFU, KIAA1704 /// LOC100996395 / Fold change vs veh, KIAA1704 /// LOC100996395 / RFU, ING1 / Fold change vs veh, ING1 / RFU, TRMT61B / Fold change vs veh, TRMT61B / RFU, FUBP3 / Fold change vs veh, FUBP3 / RFU, TP53 / Fold change vs veh, TP53 / RFU, TNKS2 / Fold change vs veh, TNKS2 / RFU, ZFP14 / Fold change vs veh, ZFP14 / RFU, ACTR2 / Fold change vs veh, ACTR2 / RFU, PPP3R1 / Fold change vs veh, PPP3R1 / RFU, PIK3R1 / Fold change vs veh, PIK3R1 / RFU, HNRNPA1 / Fold change vs veh, HNRNPA1 / RFU, RNF170 / Fold change vs veh, RNF170 / RFU, ZNF28 / Fold change vs veh, ZNF28 / RFU, RNGTT / Fold change vs veh, RNGTT / RFU, OGT / Fold change vs veh, OGT / RFU, BRD1 / Fold change vs veh, BRD1 / RFU, MARS / Fold change vs veh, MARS / RFU, ZNF655 / Fold change vs veh, ZNF655 / RFU, FAHD1 / Fold change vs veh, FAHD1 / RFU, BDP1 / Fold change vs veh, BDP1 / RFU, LRRCC1 / Fold change vs veh, LRRCC1 / RFU, ARID1A / Fold change vs veh, ARID1A / RFU, ZNF146 / Fold change vs veh, ZNF146 / RFU, ZNF330 / Fold change vs veh, ZNF330 / RFU, GPN3 / Fold change vs veh, GPN3 / RFU, C9orf123 / Fold change vs veh, C9orf123 / RFU, N4BP2L2 / Fold change vs veh, N4BP2L2 / RFU, ARFIP1 / Fold change vs veh, ARFIP1 / RFU, FAM179B / Fold change vs veh, FAM179B / RFU, BCL10 / Fold change vs veh, BCL10 / RFU, UHRF1BP1L / Fold change vs veh, UHRF1BP1L / RFU, BET1 / Fold change vs veh, BET1 / RFU, CNOT2 / Fold change vs veh, CNOT2 / RFU, ZNF268 / Fold change vs veh, ZNF268 / Fold change vs veh, ZNF507 / RFU, DGCR2 / Fold change vs veh, DGCR2 / RFU, WDSUB1 / Fold change vs veh, WDSUB1 / Fold change vs veh, HSP90B1 /// MIR3652 / RFU, ADSS / Fold change vs veh, ADSS / RFU, GK / Fold change vs veh, GK / RFU, ZNF148 / Fold change vs veh, ZNF148 / RFU, TAF9 / Fold change vs veh, TAF9 / RFU, SLC1A5 / Fold change vs veh, SLC1A5 / RFU, SLMO2 / Fold change vs veh, SLMO2 / RFU, ABCC4 / Fold change vs veh, ABCC4 / RFU, LOC101060439 /// RAP1B / Fold change vs veh, LOC101060439 /// RAP1B / RFU, RFX7 / Fold change vs veh, RFX7 / RFU, GTPBP10 / Fold change vs veh, GTPBP10 / RFU, CNEP1R1 / Fold change vs veh, CNEP1R1 / RFU, BIVM-ERCC5 /// ERCC5 / Fold change vs veh, BIVM-ERCC5 /// ERCC5 / RFU, ILF3 / Fold change vs veh, ILF3 / RFU 11762660_at / Fold change /veh 11762660_at / RFU VCAN (11757783_s_at) / Fold change /veh VCAN (11757783_s_at) / RFU DDX43 (11728927_at) / Fold change /veh DDX43 (11728927_at) / RFU KRT8 (11758188_x_at) / Fold change /veh KRT8 (11758188_x_at) / RFU NKD1 (11759106_at) / Fold change /veh NKD1 (11759106_at) / RFU SRD5A1 (11742802_a_at) / Fold change /veh SRD5A1 (11742802_a_at) / RFU TPSAB1 /// TPSB2 (11721975_s_at) / Fold change /veh TPSAB1 /// TPSB2 (11721975_s_at) / RFU GSTM3 (11746129_a_at) / Fold change /veh GSTM3 (11746129_a_at) / RFU IL23R (11737362_x_at) / Fold change /veh IL23R (11737362_x_at) / RFU TMEM51 (11727254_a_at) / Fold change /veh TMEM51 (11727254_a_at) / RFU PIWIL2 (11732686_x_at) / Fold change /veh PIWIL2 (11732686_x_at) / RFU ORM1 (11744905_x_at) / Fold change /veh ORM1 (11744905_x_at) / RFU CCDC152 (11743942_at) / Fold change /veh CCDC152 (11743942_at) / RFU ECM1 (11717891_a_at) / Fold change /veh ECM1 (11717891_a_at) / RFU IL23R (11748794_a_at) / Fold change /veh IL23R (11748794_a_at) / RFU TNFAIP8L3 (11732012_x_at) / Fold change /veh TNFAIP8L3 (11732012_x_at) / RFU MBOAT4 (11741988_at) / Fold change /veh MBOAT4 (11741988_at) / RFU 11764193_at / Fold change /veh 11764193_at / RFU TMEM53 (11763286_at) / Fold change /veh TMEM53 (11763286_at) / RFU MAGEB2 (11727129_at) / Fold change /veh MAGEB2 (11727129_at) / RFU TMEM200A (11744735_a_at) / Fold change /veh TMEM200A (11744735_a_at) / RFU CCDC152 (11751479_a_at) / Fold change /veh CCDC152 (11751479_a_at) / RFU FAM211A (11726209_a_at) / Fold change /veh FAM211A (11726209_a_at) / RFU RGS16 (11746705_a_at) / Fold change /veh RGS16 (11746705_a_at) / RFU VCAN (11755009_s_at) / Fold change /veh VCAN (11755009_s_at) / RFU RHOB (11743442_s_at) / Fold change /veh RHOB (11743442_s_at) / RFU RGS16 (11720943_a_at) / Fold change /veh RGS16 (11720943_a_at) / RFU RGS16 (11720944_at) / Fold change /veh RGS16 (11720944_at) / RFU, VPS4B / Fold change vs veh, VPS4B / RFU, CREB1 / Fold change vs veh, CREB1 / RFU, DNAJC13 / Fold change vs veh, DNAJC13 / RFU, GNAQ / Fold change vs veh, GNAQ / RFU, CDK5R1 / Fold change vs veh, CDK5R1 / RFU, ZRANB3 / Fold change vs veh, ZRANB3 / RFU, CUL4A / Fold change vs veh, CUL4A / RFU, CCNY / Fold change vs veh, CCNY / RFU, UFL1 / Fold change vs veh, UFL1 / RFU, COG3 / Fold change vs veh, COG3 / RFU, DIAPH2 / Fold change vs veh, DIAPH2 / RFU, SKA2 / Fold change vs veh, SKA2 / RFU, AFF3 / Fold change vs veh, AFF3 / RFU, LMF1 / Fold change vs veh, LMF1 / RFU, IPO11 / Fold change vs veh, IPO11 / RFU, DFFB / Fold change vs veh, DFFB / RFU, FOXP1 / Fold change vs veh, FOXP1 / RFU, CARD8 / Fold change vs veh, CARD8 / RFU, STRN3 / Fold change vs veh, STRN3 / RFU, ADK / Fold change vs veh, ADK / RFU, RASSF2 / Fold change vs veh, RASSF2 / RFU, WIPF1 / Fold change vs veh, WIPF1 / RFU, LARP1B / Fold change vs veh, LARP1B / RFU, RASA1 / Fold change vs veh, RASA1 / RFU, RB1 / Fold change vs veh, RB1 / RFU, PPFIA1 / Fold change vs veh, PPFIA1 / RFU, MAT2A / Fold change vs veh, MAT2A / RFU, CCT5 / Fold change vs veh, CCT5 / RFU, WDR92 / Fold change vs veh, WDR92 / RFU, CUX1 / Fold change vs veh, CUX1 / RFU, TTC7A / Fold change vs veh, TTC7A / RFU, TMEM135 / Fold change vs veh, TMEM135 / RFU, DEPTOR / Fold change vs veh, DEPTOR / RFU, CPM / Fold change vs veh, CPM / RFU, DNAJB6 / Fold change vs veh, DNAJB6 / RFU, CACNA2D3 / Fold change vs veh, CACNA2D3 / RFU, DTX4 / Fold change vs veh, DTX4 / RFU, TFCP2 / Fold change vs veh, TFCP2 / RFU, GMCL1 /// GMCL1P1 / Fold change vs veh, GMCL1 /// GMCL1P1 / RFU, AEBP2 / Fold change vs veh, AEBP2 / RFU, SNHG1 /// SNORD22 /// SNORD25 /// SNORD26 /// SNORD27 /// SNORD28 /// SNORD29 /// SNORD31 / Fold change vs veh, SNHG1 /// SNORD22 /// SNORD25 /// SNORD26 /// SNORD27 /// SNORD28 /// SNORD29 /// SNORD31 / Fold change (Aza/veh), C12orf56 (ProbeSet 11735607_a_at) / Fold change (ACY-1035/veh), C12orf56 (ProbeSet 11735607_a_at) / Fold change (Aza/veh), FGFR1OP (ProbeSet 11751329_s_at) / Fold change (ACY-1035/veh), FGFR1OP (ProbeSet 11751329_s_at) / Fold change (Aza/veh), VPS36 (ProbeSet 11739960_a_at) / Fold change (ACY-1035/veh), VPS36 (ProbeSet 11739960_a_at) / RFU SYPL1 (11715823_x_at) / Fold change /veh SYPL1 (11715823_x_at) / RFU IGFBP7 (11715501_s_at) / Fold change /veh IGFBP7 (11715501_s_at) / RFU REEP3 (11722064_at) / Fold change /veh REEP3 (11722064_at) / RFU IGLL1 (11728026_x_at) / Fold change /veh IGLL1 (11728026_x_at): dose or concentration left out as unconfirmed
# Settings: ProbeSet 11733108_at; LIST D
smiles,measurement,value
Nc1ncn([C@@H]2O[C@H](CO)[C@@H](O)[C@H]2O)c(=O)n1 [azacitidine],"RFU, GNAQ",233.19 RFU
